{
  "source": "patent US7022707B2",
  "about": "“Piperazine derivatives” (Hoffman-La Roche Inc., priority 2000, dated 2006)",
  "key": {"rats": {"tested_on": "rats", "conditions": "literature; cited from earlier work"}, "[1]": {"tested_on": "human volunteers and obese subjects", "conditions": "literature, cited from earlier work"}, "human 5-HT2B receptors": {"target": "T1, human 5-HT2B receptors (Homo sapiens, UniProt P41595)", "T1 construct": "expressed in transfected cells; host or cells: CHO cell line", "T1 sequence (P41595 whole entry)": "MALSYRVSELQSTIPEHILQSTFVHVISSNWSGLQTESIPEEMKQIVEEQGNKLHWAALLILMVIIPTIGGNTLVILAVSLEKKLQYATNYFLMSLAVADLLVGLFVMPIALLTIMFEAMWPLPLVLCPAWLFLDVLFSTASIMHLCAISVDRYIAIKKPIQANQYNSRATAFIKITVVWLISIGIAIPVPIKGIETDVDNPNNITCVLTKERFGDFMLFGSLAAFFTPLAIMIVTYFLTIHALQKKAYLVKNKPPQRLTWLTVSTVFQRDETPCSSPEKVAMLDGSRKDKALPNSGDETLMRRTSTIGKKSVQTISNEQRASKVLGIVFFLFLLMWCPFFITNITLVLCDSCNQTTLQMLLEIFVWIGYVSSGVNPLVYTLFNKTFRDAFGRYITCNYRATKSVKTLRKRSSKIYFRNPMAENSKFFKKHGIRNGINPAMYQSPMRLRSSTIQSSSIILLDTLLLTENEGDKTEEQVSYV", "assay": "Binding to 5-HT2B receptor, [3H]-5-HT, Method (b)", "experimental": "(§1) The binding of compounds of formula (I) to serotonin receptors was determined in vitro by standard methods. The preparations were investigated in accordance with the assays given below.\nMethod (b): For the binding to the 5-HT2B receptor, the 5-HT2B receptors were radiolabeled with [^3H]-5-HT. The affinity of the compounds for human 5-HT2B receptors in a CHO cell line was determined according to the procedure of K. Schmuck, C. Ullmer, P. Engels and H. Lubbert, FEBS Lett., 1994, 342, 85–90.\n(§2) The Ki value is definied as an inhibition constance and is determined from the IC50 value as described in Cheng, Yung-Chi and Prusoff, W. H., Biochem. Pharmacol., 1973, 22(23), 3099–108."}, "5-HT2C receptor [2]": {"target": "T2, 5-HT2C receptor (Homo sapiens, UniProt P28335)", "T2 sequence (P28335 33-458)": "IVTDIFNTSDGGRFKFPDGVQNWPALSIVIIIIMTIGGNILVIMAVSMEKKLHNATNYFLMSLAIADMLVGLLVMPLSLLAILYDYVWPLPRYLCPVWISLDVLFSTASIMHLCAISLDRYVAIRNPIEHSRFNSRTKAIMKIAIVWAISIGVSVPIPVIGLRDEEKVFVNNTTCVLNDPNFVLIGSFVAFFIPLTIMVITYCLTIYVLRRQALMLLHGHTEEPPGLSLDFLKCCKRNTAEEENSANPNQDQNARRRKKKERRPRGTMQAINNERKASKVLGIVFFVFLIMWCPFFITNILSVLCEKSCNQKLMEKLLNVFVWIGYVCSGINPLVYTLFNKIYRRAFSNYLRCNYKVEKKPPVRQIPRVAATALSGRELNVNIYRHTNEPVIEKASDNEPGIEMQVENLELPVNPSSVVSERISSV", "assay": "Functional activity, FLIPR calcium assay, CHO cells expressing human 5-HT2C", "format": "cell-based", "set-up": "expressed in transfected cells; host or cells: CHO cells", "conditions": "for h5-HT2c Relative Efficacy: maximum fluorescent signal relative to 10 μM 5-HT (defined as 100%)", "experimental": "(§3) The functional activity of compounds of formula (I) was assayed using a Fluorimetric Imaging Pate reader (FLIPR). CHO cells expressing the human 5-HT2C or human 5-HT2A receptors were counted and plated into standard 96 well microtitre plates on the day before testing to give a confluent monolayer. The cells were then dye loaded with the calcium sensitive dye, Fluo-3-AM. Unincorporated dye was removed using an automated cell washer to leave a total volume of 100 μL/well of assay buffer (Hanks balanced salt solution containing 20 mM Hepes and 2.5 mM probenecid). The drug (dissolved in 50 µL of the assay buffer) was added at a rate of 70 μL/sec to each well of the FLIPR 96 well plate during fluorescence measurements. The measurements were taken at 1 sec intervals and the maximum fluorescent signal was measured (approx 10–15 secs after drug addition) and compared with the response produced by 10 μM 5-HT (defined as 100%) to which it was expressed as a percentage response (relative efficacy). Dose response curves were constructed using Graphpad Prism (Graph Software Inc.)."}, "5-HT2A receptor [3]": {"target": "T3, 5-HT2A receptor (Homo sapiens, UniProt P28223)", "T3 sequence (P28223 whole entry)": "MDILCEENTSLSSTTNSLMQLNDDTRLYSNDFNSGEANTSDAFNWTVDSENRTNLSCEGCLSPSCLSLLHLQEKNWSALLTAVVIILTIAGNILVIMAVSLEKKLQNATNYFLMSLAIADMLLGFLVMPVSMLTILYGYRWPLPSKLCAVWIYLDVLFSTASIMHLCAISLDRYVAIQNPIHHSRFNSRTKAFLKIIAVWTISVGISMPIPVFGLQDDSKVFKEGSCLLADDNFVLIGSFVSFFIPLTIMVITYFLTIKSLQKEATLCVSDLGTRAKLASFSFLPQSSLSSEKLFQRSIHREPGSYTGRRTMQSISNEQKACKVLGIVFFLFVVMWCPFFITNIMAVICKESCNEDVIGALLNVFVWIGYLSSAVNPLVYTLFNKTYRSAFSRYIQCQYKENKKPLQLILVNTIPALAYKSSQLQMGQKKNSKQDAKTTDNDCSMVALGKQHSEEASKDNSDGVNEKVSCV", "assay": "Functional activity, FLIPR calcium assay, CHO cells expressing human 5-HT2A", "format": "cell-based", "set-up": "expressed in transfected cells; host or cells: CHO cells", "conditions": "for h5-HT2A Relative Efficacy: maximum fluorescent signal relative to 10 μM 5-HT (defined as 100%)", "experimental": "as §3"}, "5-HT2C receptor [4]": {"target": "T2, 5-HT2C receptor", "assay": "Binding to 5-HT2C receptor, [3H]-5-HT, Method (a)", "set-up": "expressed in transfected cells; host or cells: CHO cell line", "experimental": "as §1\nMethod (a): For the binding to the 5-HT2C receptor, the 5-HT2C receptors were radiolabeled with [^3H]-5-HT. The affinity of the compounds for 5-HT2C receptors in a CHO cell line was determined according to the procedure of D. Hoyer, G. Engel and H. O. Kalkman, European J. Pharmacol., 1985, 118, 13–23.\nas §2"}, "5-HT2A receptor [5]": {"target": "T3, 5-HT2A receptor", "assay": "Binding to 5-HT2A receptor, [125I]-DOI, Method (c)", "set-up": "expressed in transfected cells; host or cells: CHO cell line", "experimental": "as §1\nMethod (c): For the binding to the 5-HT2A receptor, the 5-HT2A receptors were radiolabeled with [^125I]-DOI. The affinity of the compounds for 5-HT2A receptors in a CHO cell line was determined according to the procedure of D. J. McKenna and S. J. Peroutka, J. Neurosci., 1989, 9, 3482–90.\nas §2"}, "[6]": {"conditions": "Method (b), [3H]-5-HT, human 5-HT2B in CHO cell line, Ki calculated from IC50, read-out: Ki (2B)"}, "[7]": {"conditions": "FLIPR, CHO cells, Fluo-3-AM, read-out: h5-HT2c EC50"}, "[8]": {"conditions": "FLIPR, CHO cells, Fluo-3-AM, read-out: h5-HT2A EC50"}, "[9]": {"conditions": "Method (a), [3H]-5-HT, CHO cell line, Ki calculated from IC50 (Cheng-Prusoff), read-out: Ki (2C)"}, "[10]": {"conditions": "Method (c), [125I]-DOI, CHO cell line, Ki calculated from IC50, read-out: Ki (2A)"}},
  "note": "Where a name gives a salt, the structure may show the parent alone. Read-outs that look alike come from different tables or passages of the source.",
  "data": [
    {"smiles": "CCCOc1ccc(F)c(COC(=O)N2CCNCC2)c1.O=C(O)/C=C/C(=O)O", "values": [
      {"measurement": "melting point", "result": "155.9 to 156.1", "unit": "°C"}
    ]},
    {"smiles": "Clc1cccc(N2CCNCC2)c1", "note": "[mCPP, m-chlorophenylpiperazine]", "values": [
      {"measurement": "food intake in rats", "setting": "rats", "result": "reduce food intake"},
      {"measurement": "appetite and body weight", "setting": "[1]; obese male and female subjects, subchronic treatment for a 14 day period", "result": "decreased the appetite and body weight"},
      {"measurement": "food intake", "setting": "[1]; single dose, female volunteers", "result": "decreased food intake"}
    ]},
    {"smiles": "CCCCOc1ccc(F)c(COC(=O)N2CCNCC2)c1.O=C(O)/C=C/C(=O)O", "values": [
      {"measurement": "melting point", "result": "142.4 to 143.5", "unit": "°C"}
    ]},
    {"smiles": "CCOc1ccc(F)c(COC(=O)N2[C@H](C)CNC[C@@H]2C)c1.O=C(O)/C=C/C(=O)O", "values": [
      {"measurement": "melting point", "result": "142.9 to 143.3", "unit": "°C"}
    ]},
    {"smiles": "Cl.O=C(SCc1ccc(OCc2ccc(F)cc2)cc1)N1CCNCC1", "values": [
      {"measurement": "melting point", "result": "169 to 169.5", "unit": "°C"}
    ]},
    {"smiles": "CCCCOc1ccc(F)c(COC(=O)N2[C@H](C)CNC[C@@H]2C)c1.O=C(O)/C=C/C(=O)O", "values": [
      {"measurement": "melting point", "result": "153.2 to 153.5", "unit": "°C"}
    ]},
    {"smiles": "Cc1noc(C)c1COc1cc(F)c(COC(=O)N2[C@H](C)CNC[C@@H]2C)c(F)c1", "note": "[Example 121, cis-2,6-Dimethyl-piperazine-1-carboxylic acid 4-(3,5-dimethyl-isoxazol-4-ylmethoxy)-2,6-difluoro-benzyl esterfumarate]", "values": [
      {"measurement": "Ki", "setting": "human 5-HT2B receptors; [6]", "result": 8400, "unit": "nM"},
      {"measurement": "EC50", "setting": "5-HT2C receptor [2]; [7]", "result": 22, "unit": "nM"},
      {"measurement": "h5-HT2c Relative Efficacy", "setting": "5-HT2C receptor [2]", "result": 91, "unit": "%"},
      {"measurement": "EC50", "setting": "5-HT2A receptor [3]; [8]", "result": 550, "unit": "nM"},
      {"measurement": "h5-HT2A Relative Efficacy", "setting": "5-HT2A receptor [3]", "result": 11, "unit": "%"},
      {"measurement": "Ki", "setting": "5-HT2C receptor [4]; [9]", "result": 15, "unit": "nM"},
      {"measurement": "Ki", "setting": "5-HT2A receptor [5]; [10]", "result": 200, "unit": "nM"}
    ]},
    {"smiles": "CCCOc1cc(F)c(COC(=O)N2CCNC[C@H]2C)c(F)c1.O=C(O)/C=C/C(=O)O", "values": [
      {"measurement": "melting point", "result": "193.9 to 194", "unit": "°C"}
    ]},
    {"smiles": "CCCCOc1ccc(F)c(COC(=O)N2CCNC[C@H]2C)c1.O=C(O)/C=C/C(=O)O", "values": [
      {"measurement": "melting point", "result": "171.6 to 171.7", "unit": "°C"}
    ]},
    {"smiles": "CCCOc1ccc(F)c(COC(=O)N2CCNC[C@H]2C)c1.O=C(O)/C=C/C(=O)O", "values": [
      {"measurement": "melting point", "result": "162.6 to 162.7", "unit": "°C"}
    ]},
    {"smiles": "Cl.O=C(OCc1ccc(OC(F)F)cc1)N1CCNCC1", "note": "[Example 22, Piperazine-1-carboxylic acid 4-difluoromethoxy-benzyl ester hydrochloride]", "values": [
      {"measurement": "Ki", "setting": "human 5-HT2B receptors; [6]", "result": 4000, "unit": "nM"},
      {"measurement": "EC50", "setting": "5-HT2C receptor [2]; [7]", "result": 100, "unit": "nM"},
      {"measurement": "h5-HT2c Relative Efficacy", "setting": "5-HT2C receptor [2]", "result": 56, "unit": "%"},
      {"measurement": "EC50", "setting": "5-HT2A receptor [3]; [8]", "result": 220, "unit": "nM"},
      {"measurement": "h5-HT2A Relative Efficacy", "setting": "5-HT2A receptor [3]", "result": 24, "unit": "%"},
      {"measurement": "Ki", "setting": "5-HT2C receptor [4]; [9]", "result": 44, "unit": "nM"},
      {"measurement": "Ki", "setting": "5-HT2A receptor [5]; [10]", "result": 44, "unit": "nM"}
    ]},
    {"smiles": "C[C@@H]1CNCCN1C(=O)OCc1ccc(OC(F)F)cc1.O=C(O)/C=C/C(=O)O", "values": [
      {"measurement": "melting point", "result": "123.9 to 124.5", "unit": "°C"}
    ]},
    {"smiles": "C[C@@H]1CNC[C@H](C)N1C(=O)OCc1c(F)ccc(Br)c1F.Cl", "values": [
      {"measurement": "melting point", "result": "207 to 210", "unit": "°C"}
    ]},
    {"smiles": "CC(C)NC(=O)Oc1ccc(CSC(=O)N2CCNCC2)cc1", "note": "[Example 63, S-4-[(2-Propylamino)carbonyl]oxybenzyl piperazine-1-thiocarboxylate hydrochloride]", "values": [
      {"measurement": "Ki", "setting": "human 5-HT2B receptors", "result": 8300, "unit": "nM"},
      {"measurement": "EC50", "setting": "5-HT2C receptor [2]", "result": 33, "unit": "nM"},
      {"measurement": "h5-HT2c Relative Efficacy", "setting": "5-HT2C receptor [2]", "result": 74, "unit": "%"},
      {"measurement": "EC50", "setting": "5-HT2A receptor [3]", "result": 370, "unit": "nM"},
      {"measurement": "h5-HT2A Relative Efficacy", "setting": "5-HT2A receptor [3]", "result": 25, "unit": "%"},
      {"measurement": "Ki", "setting": "5-HT2C receptor [4]", "result": 33, "unit": "nM"},
      {"measurement": "Ki", "setting": "5-HT2A receptor [5]", "result": 550, "unit": "nM"}
    ]},
    {"smiles": "CC(C)COc1ccc(F)c(COC(=O)N2[C@H](C)CNC[C@@H]2C)c1.O=C(O)/C=C/C(=O)O", "values": [
      {"measurement": "melting point", "result": "178.6 to 178.7", "unit": "°C"}
    ]},
    {"smiles": "CCCOc1cc(F)c(COC(=O)N2CCNCC2CC)c(F)c1.O=C(O)/C=C/C(=O)O", "note": "(racemic)", "values": [
      {"measurement": "melting point", "result": "145 to 165 °C (dec.)"}
    ]},
    {"smiles": "Cl.O=C(OCc1ccc(Br)cc1F)N1CCNCC1", "values": [
      {"measurement": "melting point", "result": "209.5 to 209.6", "unit": "°C"}
    ]},
    {"smiles": "Cl.O=C(SCc1ccc(OCc2ccccc2)cc1)N1CCNCC1", "note": "[Example 32, Piperazine-1-carbothioic acid S-(4-benzyloxy-benzyl) ester hydrochloride]", "values": [
      {"measurement": "Ki", "setting": "human 5-HT2B receptors; [6]", "result": 370, "unit": "nM"},
      {"measurement": "EC50", "setting": "5-HT2C receptor [2]; [7]", "result": 38, "unit": "nM"},
      {"measurement": "h5-HT2c Relative Efficacy", "setting": "5-HT2C receptor [2]", "result": 65, "unit": "%"},
      {"measurement": "EC50", "setting": "5-HT2A receptor [3]; [8]", "result": 560, "unit": "nM"},
      {"measurement": "h5-HT2A Relative Efficacy", "setting": "5-HT2A receptor [3]", "result": 22, "unit": "%"},
      {"measurement": "Ki", "setting": "5-HT2C receptor [4]; [9]", "result": 15, "unit": "nM"},
      {"measurement": "Ki", "setting": "5-HT2A receptor [5]; [10]", "result": 6, "unit": "nM"}
    ]}
  ]
}
